{
  "source": "patent US20250041286A1",
  "about": "“CANCER TREATMENT USING KETOTIFEN IN COMBINATION WITH A CHECKPOINT INHIBITOR” (Materia Therapeutics Inc., priority 2021, published 2025)",
  "type_in_all_cases": "in vivo, mouse",
  "key": {"tumors": {"system": "tumors", "test": "Interstitial fluid pressure, wick-in-needle technique", "experimental": "Interstitial fluid pressure (IFP) was measured in vivo using the “wick-in-needle” technique after mice were anesthetized with i.p. injection of Avertin and prior to tumor excision. Additional information regarding the wick-in-needle technique is described in Dong et al., Involvement of mast cell chymase in burn wound healing in hamsters 2013; 5:643-7 and Shankaran et al. IFNγ and lymphocytes prevent primary tumour development and shape tumour immunogenicity 2001; 410:1107-11, the contents of which are incorporated herein by reference in their entirety."}, "MCA205 tumors [1]": {"system": "MCA205 tumors", "test": "qPCR mRNA expression levels in tumors", "conditions": "10 mg/kg ketotifen", "experimental": "Total RNA was isolated from breast tumors according to the standard Trizol-based protocol (Invitrogen), and cDNA synthesis was performed using reverse transcriptase III (RT-III) enzyme and random hexamers (Invitrogen). Real-time polymerase chain reaction was performed using Sybr Fast Universal Master Mix (KAPA). Reactions were performed using a CFX-96 real-time PCR detection system (BioRad) at the following conditions: 95° C. for 2 minutes, 95° C. for 2 seconds, 60° C. for 20 seconds, 60° C. for 1 second, steps 2-4 for 39 cycles. Real-time PCR analysis and calculation of changes in gene expression between compared groups was performed using the ΔΔ^Ct method. Relative gene expression was normalized based on the expression of β-actin. For qPCR analysis, 3-5 biological samples were used per treatment and 3 technical replicates for each sample.\nmRNA expression levels were evaluated in both mouse sarcoma models by qPCR, as described above.\nRT-qPCR, as described above, […]."}, "K7M2wt tumors [2]": {"system": "K7M2wt tumors", "test": "Vascular and functional perfusion, contrast-enhanced ultrasound", "conditions": "10 mg/kg ketotifen, day 3 and day 7", "experimental": "(§1) Vascular perfusion and functional perfusion were measured simultaneously during the course of ketotifen treatment, at day 3 and day 7, using contrast-enhanced ultrasound in mice bearing MCA205 and mice bearing K7M2wt tumors. Tumor perfusion was assessed after bolus injection of 8 μl SonoVue/Lumason contrast agent (Bracco Diagnostics, Geneva, Switzerland). SonoVue contains sulphur hexafluoride microbubbles encapsulated with a phosphoilipid shell and having a mean diameter of 2.5 μm. It is delivered as a retro-orbital injection since tail vein microbubble injections tend to have high variability. Prior to each ultrasound application, mice were anesthetized by i.p. injection of Avertin (200 mg/kg)."}, "MCA205 tumors [3]": {"system": "MCA205 tumors", "test": "Vascular and functional perfusion, contrast-enhanced ultrasound", "conditions": "10 mg/kg ketotifen, day 3 and day 7", "experimental": "as §1"}, "CD117 protein": {"system": "CD117 protein", "test": "Western blot against CD117 protein (mast cell number) in tumors", "conditions": "subtherapeutic doses of ketotifen"}, "K7M2wt tumors [4]": {"system": "K7M2wt tumors", "test": "Ultrasound shear wave elastography of tumor stiffness", "conditions": "10 mg/kg daily ketotifen", "experimental": "(§2) The mechanotherapeutic potential of ketotifen in reducing matrix stiffness was primarily assessed non-invasively and longitudinally using ultrasound elastography. Briefly, assessment of tumor elastic modulus was […] via shear wave elastography using a Philips EPIQ Elite Ultrasound scanner with an eL18-4 linear array, approved for clinical scanning was performed as described in previous study. Elastic modulus values of the areas of the region of interest (ROI) with the highest shear wave quality were obtained. The elastic modulus value presented is the average within the tumor region. Shear wave imaging of MCA205 tumors was performed prior to ketotifen treatment on day 7, to determine baseline level of tumor stiffness, after three days of treatment (day 11), and on the last day of treatment just before tumor removal (day 15). Ultrasound imaging of K7M2wt tumors was performed on day 24, 28, and 31. The effect of ketotifen on chemo-immunotherapy combination with regards to MCA205 tissue elasticity was assessed on day 7 before the first cycle of doxorubicin+anti-PD-L1 treatment, one day after second cycle (day 11) and two days after the last cycle (day 15). Ultrasound imaging of K7M2wt tumors was performed on day 22 (i.e., four days post daily ketotifen and before first cycle of combination treatment) and upon completion of treatment (day 32)."}, "MCA205 tumors [5]": {"system": "MCA205 tumors", "test": "Ultrasound shear wave elastography of tumor stiffness", "conditions": "10 mg/kg daily ketotifen, dose that reduced stiffness the most", "experimental": "as §2"}, "MCA205 tumors [6]": {"system": "MCA205 tumors", "test": "Tumor growth (volume, mass) under daily ketotifen, fibrosarcoma model", "conditions": "ketotifen 1, 5, 10 and 25 mg/kg i.p. once a day for 8 days", "experimental": "Two mouse models of distinct sarcoma subtypes, fibrosarcoma (MCA205 cells) and osteosarcoma (K7M2wt cells), were used in this study.\nMCA205, a mouse fibrosarcoma cell line (SCC173, Millipore), was cultured in RPMI-1640 expansion medium containing 2 mM L-glutamine, 1 mM sodium pyruvate, 10% fetal bovine serum, 1× non-essential amino acids (TMS-001-C, Sigma), 1% antibiotics (A5955, Sigma), and 1×β-mercaptoethanol. K7M2wt, a mouse osteosarcoma cell line (CRL2836™, ATCC®), was cultured in DMEM expansion medium supplemented with 10% FBS and 1% antibiotics. All cells were maintained at 37° C./5% CO2.\nA fibrosarcoma syngeneic tumor model was generated by subcutaneous implantation of 2.5×10^5 MCA205 cells in 50 μL of serum-free medium into the flank of 6-week old C57BL/6 female mice. A osteosarcoma syngeneic tumor model was generated by implanting K7M2wt tumor chunks into the fat pad of 6-week old BALB/c female mice. […]\nEach treatment group of 4-7 mice received subtherapeutic doses of ketotifen (1, 5, 10 and 25 mg/kg) for a period of 8 days. […] Planar dimensions (x, y) of tumor were monitored every 2-3 days using a digital caliper and tumor volume was estimated from the volume of an ellipsoid and assuming that the third dimension, z, is equal to sqrt(x y)."}},
  "note": "Entries after “also recorded” stand apart in the source; their conditions may differ.",
  "data": [
    {"molecule": "CN1CCC(=C2c3ccccc3CC(=O)c3sccc32)CC1", "note": "[ketotifen]", "values": [
      {"measurement": "interstitial fluid pressure (IFP)", "setting": "tumors; 10 mg/kg dose compared with the other doses", "value": "greatest effect"},
      {"measurement": "interstitial fluid pressure (IFP)", "setting": "tumors; all doses of ketotifen, daily for 7 days", "value": "reduces; also recorded: reduction in IFP levels"},
      {"measurement": "mRNA expression of ICAM", "setting": "MCA205 tumors [1]", "value": "increased"},
      {"measurement": "mRNA expression of P-selectin (P-sel)", "setting": "MCA205 tumors [1]", "value": "increased"},
      {"measurement": "mRNA levels of IFN-γ", "setting": "MCA205 tumors [1]", "value": "upregulated; also recorded: upregulation"},
      {"measurement": "mRNA levels of VEGF", "setting": "MCA205 tumors [1]", "value": "without affecting; also recorded: a reduction in VEGF transcripts was not observed"},
      {"measurement": "mRNA levels of collagen I encoding gene (Col1A1)", "setting": "MCA205 tumors [1]", "value": "reduced the mRNA levels of collagen I encoding gene (Col1A1) and connective tissue growth factor (CTGR), although not to a statistically significant extent"},
      {"measurement": "mRNA levels of connective tissue growth factor (CTGR)", "setting": "MCA205 tumors [1]", "value": "reduced the mRNA levels of collagen I encoding gene (Col1A1) and connective tissue growth factor (CTGR), although not to a statistically significant extent"},
      {"measurement": "mRNA levels of hyaluronan synthase 2 (Has2)", "setting": "MCA205 tumors [1]", "value": "no effect"},
      {"measurement": "mRNA levels of hyaluronan synthase 3 (Has3)", "setting": "MCA205 tumors [1]", "value": "no effect"},
      {"measurement": "vascular and functional perfusion", "setting": "K7M2wt tumors [2]", "value": "significant increase; also recorded: highly effective at increasing vessel perfusion"},
      {"measurement": "vascular and functional perfusion", "setting": "MCA205 tumors [3]", "value": "significant increase; also recorded: highly effective at increasing vessel perfusion"},
      {"measurement": "mast cell (MC) number as determined by CD117 protein levels", "setting": "CD117 protein", "value": "remain unaffected"},
      {"measurement": "tissue stiffness (Young's modulus)", "setting": "K7M2wt tumors [4]", "value": "similarly benefited"},
      {"measurement": "Young's modulus (tissue stiffness)", "setting": "MCA205 tumors [5]", "value": 20, "unit": "kPa"},
      {"measurement": "antitumor effect (tumor volume and mass)", "setting": "MCA205 tumors [6]", "value": "No subtherepautic dose of ketotifen exhibited an antitumor effect"}
    ]}
  ]
}
